Publication PMC10920834, “Synthesis, anticancer activity, and molecular docking of half-sandwich iron(II) cyclopentadienyl complexes with maleimide and phosphine or phosphite ligands” (Scientific Reports, 2024)

Key:
HL-60 cells [1] = assay: Alkaline comet assay, HL-60 cells; format: cell-based, human
Method: (§1) Selected iron(II) complexes were added to the suspension of the cells to give final concentrations of 1, 5, 10, 25 and 50 μM. HL-60 and A549 cells were incubated with the complexes for 2 h at 37 °C. The comet assay was performed under alkaline conditions according to the procedure of Tokarz et al.[45]. […] Next, the cells were lysed for 1 h at 4 °C in a buffer containing 2.5 M NaCl, 0.1 M EDTA, 10 mM Tris, 1% Triton X-100, pH 10. Following the lysis, the slides were placed in an electrophoresis unit. DNA was allowed to unwind for 20 min in the solution containing 300 mM NaOH and 1 mM EDTA, pH > 13. […] After separation, the slides were washed in water, drained, stained with 2 μg/ml DAPI and covered with cover slips. As a prevention from additional DNA damage, the procedure described above was conducted under limited light or in the dark. Each experiment included the positive control—cells incubated with H2O2 at 20 µM for 15 min on ice (data not shown).
(§2) The comets obtained after single cell gel electrophoresis were analysed in the following manner. […] Hundred images of singular comets were randomly selected from each sample and the mean value of DNA in comet tail was taken as an index of DNA damage (expressed in percent).

A549 cells [2] = assay: Alkaline comet assay, A549 cells; format: cell-based, human; details: 2 h, 50 μM
Method: as §1, §2

HL-60 cells [3] = assay: Cell viability resazurin assay, HL-60 cells; format: cell-based, human; details: for viability of HL-60 cells relative to control: ± SD
Summary of the method: (§3)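 A549 cells (5 × 10^3/well, adhered 24 h) or HL-60 cells (1 × 10^4/well) exposed to iron(II) complexes at 0.5–250 μM for 2 h and 24 h at 37 °C. Resazurin then added for 2 h; fluorescence (ex 530, em 590 nm) expressed as percent of control, IC50 calculated, octuplicate.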

PBM cells = assay: Cell viability resazurin assay, PBM cells; format: cell-based, human; details: for viability of PBM cells relative to control: ± SD
Summary of the method: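 Human PBM cells isolated from healthy-donor buffy coats by density gradient, seeded at 5 × 10^4 per well in RPMI 1640 and exposed to iron(II) complexes at 0.5–250 μM for 2 h and 24 h at 37 °C. Resazurin added for 2 h and fluorescence read at 530/590 nm; IC50 from percentage of control, octuplicate.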

A549 cells [4] = assay: Cell viability resazurin assay, A549 cells; format: cell-based, human; details: for viability of A549 cells relative to control: ± SD
Summary of the method: as §3

[5] = test system: Genomic DNA isolated from A549 cell line; assay: DNA titration (UV-Vis absorption spectra); format: binding, human; details: 0.5, 5 and 50 µM, 15 min, room temp.
Method: Genomic DNA was isolated from A549 cell line using a commercially available kit (Extractme Genomic DNA Kit, Blirt, Gdansk, Poland) following the manufacturer’s protocol. The concentration and purity of DNA were measured by BioTek Synergy HT Microplate Reader (BioTek Instruments, Winooski, VT, USA). Genomic DNA in the amount of 20 µg was incubated with complex 2b for 15 min at room temp. at concentrations 0.5, 5, and 50 µM in a final volume of 2 ml. Next UV–Vis absorbance spectra (240–300 nm) was measured by UV–Vis JASCO V-630 spectrophotometer (JASCO, Japan).

Structure (SMILES): O=C1C=CC(=O)[N-]1.[C-]#[O+].[Fe+2].c1cc[cH-]c1.c1coc(P(c2ccco2)c2ccco2)c1 [2b, CpFe(CO)(P(Fu)3)(η^1-N-maleimidato)]
- DNA damage in HL-60 cells (alkaline comet assay), in words (HL-60 cells [1]; 2 h incubation, 1-50 μM tested): induced DNA damage
- DNA in tail (alkaline comet assay) (HL-60 cells [1]; HL-60 cells, 2 h, 50 μM): 6%
- percentage of DNA damage in tail (alkaline comet assay) (A549 cells [2]): about 2%
- viability of HL-60 cells relative to control (HL-60 cells [3]; 2 h incubation, 0.5 µM): 106.51 ± 2.33%
- viability of HL-60 cells relative to control (HL-60 cells [3]; 2 h incubation, 1 µM): 106.74 ± 1.35%
- viability of HL-60 cells relative to control (HL-60 cells [3]; 2 h incubation, 2.5 µM): 103.04 ± 1.98%
- viability of HL-60 cells relative to control (HL-60 cells [3]; 2 h incubation, 5 µM): 104.72 ± 2.62%
- viability of HL-60 cells relative to control (HL-60 cells [3]; 2 h incubation, 10 µM): 104.03 ± 2.08%
- viability of HL-60 cells relative to control (HL-60 cells [3]; 2 h incubation, 25 µM): 95.86 ± 2.66%
- viability of HL-60 cells relative to control (HL-60 cells [3]; 2 h incubation, 50 µM): 90.45 ± 0.98%
- viability of HL-60 cells relative to control (HL-60 cells [3]; 2 h incubation, 100 µM): 76.15 ± 3.1%
- viability of HL-60 cells relative to control (HL-60 cells [3]; 2 h incubation, 250 µM): 21.23 ± 1.56%
- IC50 (HL-60 cells [3]; 24 h incubation): 10 µM
- viability of HL-60 cells relative to control (HL-60 cells [3]; 24 h incubation, 0.5 µM): 107.57 ± 3.87%
- viability of HL-60 cells relative to control (HL-60 cells [3]; 24 h incubation, 1 µM): 105.5 ± 3.13%
- viability of HL-60 cells relative to control (HL-60 cells [3]; 24 h incubation, 2.5 µM): 97.63 ± 0.5%
- viability of HL-60 cells relative to control (HL-60 cells [3]; 24 h incubation, 5 µM): 79.34 ± 1.21%
- viability of HL-60 cells relative to control (HL-60 cells [3]; 24 h incubation, 10 µM): 51.6 ± 1.43%
- viability of HL-60 cells relative to control (HL-60 cells [3]; 24 h incubation, 25 µM): 38.21 ± 0.22%
- viability of HL-60 cells relative to control (HL-60 cells [3]; 24 h incubation, 50 µM): 35.8 ± 2.09%
- viability of HL-60 cells relative to control (HL-60 cells [3]; 24 h incubation, 100 µM): 25.41 ± 1.92%
- viability of HL-60 cells relative to control (HL-60 cells [3]; 24 h incubation, 250 µM): 17.52 ± 1.12%
- viability of PBM cells relative to control (PBM cells; 2 h incubation, 0.5 µM): 98.07 ± 0.32%
- viability of PBM cells relative to control (PBM cells; 2 h incubation, 1 µM): 97.62 ± 0.66%
- viability of PBM cells relative to control (PBM cells; 2 h incubation, 2.5 µM): 96.06 ± 2.38%
- viability of PBM cells relative to control (PBM cells; 2 h incubation, 5 µM): 97 ± 1.29%
- viability of PBM cells relative to control (PBM cells; 2 h incubation, 10 µM): 96.53 ± 1.24%
- viability of PBM cells relative to control (PBM cells; 2 h incubation, 25 µM): 93.16 ± 4.6%
- viability of PBM cells relative to control (PBM cells; 2 h incubation, 50 µM): 79.21 ± 1.4%
- viability of PBM cells relative to control (PBM cells; 2 h incubation, 100 µM): 78.49 ± 1.24%
- viability of PBM cells relative to control (PBM cells; 2 h incubation, 250 µM): 75.23 ± 0.62%
- IC50 (PBM cells; 24 h incubation): > 250 µM
- viability of PBM cells relative to control (PBM cells; 24 h incubation, 0.5 µM): 105.37 ± 7.62%
- viability of PBM cells relative to control (PBM cells; 24 h incubation, 1 µM): 101.81 ± 0.86%
- viability of PBM cells relative to control (PBM cells; 24 h incubation, 2.5 µM): 97.1 ± 1.83%
- viability of PBM cells relative to control (PBM cells; 24 h incubation, 5 µM): 94.2 ± 4.56%
- viability of PBM cells relative to control (PBM cells; 24 h incubation, 10 µM): 94.94 ± 2.09%
- viability of PBM cells relative to control (PBM cells; 24 h incubation, 25 µM): 88.93 ± 2.18%
- viability of PBM cells relative to control (PBM cells; 24 h incubation, 50 µM): 85.34 ± 2.58%
- viability of PBM cells relative to control (PBM cells; 24 h incubation, 100 µM): 83.38 ± 3.4%
- viability of PBM cells relative to control (PBM cells; 24 h incubation, 250 µM): 77.59 ± 2.06%
- viability of A549 cells relative to control (A549 cells [4]; 2 h incubation, 0.5 µM): 84.30 ± 11.24%
- viability of A549 cells relative to control (A549 cells [4]; 2 h incubation, 1 µM): 80.74 ± 14%
- viability of A549 cells relative to control (A549 cells [4]; 2 h incubation, 2.5 µM): 82.33 ± 9.73%
- viability of A549 cells relative to control (A549 cells [4]; 2 h incubation, 5 µM): 83.32 ± 11.51%
- viability of A549 cells relative to control (A549 cells [4]; 2 h incubation, 10 µM): 101.28 ± 15.65%
- viability of A549 cells relative to control (A549 cells [4]; 2 h incubation, 25 µM): 114.98 ± 11.35%
- viability of A549 cells relative to control (A549 cells [4]; 2 h incubation, 50 µM): 123.09 ± 7.89%
- viability of A549 cells relative to control (A549 cells [4]; 2 h incubation, 100 µM): 84.95 ± 8.31%
- viability of A549 cells relative to control (A549 cells [4]; 2 h incubation, 250 µM): 40.75 ± 4.24%
- IC50 (A549 cells [4]; 24 h incubation): 73.5 µM
- viability of A549 cells relative to control (A549 cells [4]; 24 h incubation, 0.5 µM): 81.57 ± 14.09%
- viability of A549 cells relative to control (A549 cells [4]; 24 h incubation, 1 µM): 74.40 ± 19.47%
- viability of A549 cells relative to control (A549 cells [4]; 24 h incubation, 2.5 µM): 73.54 ± 23.46%
- viability of A549 cells relative to control (A549 cells [4]; 24 h incubation, 5 µM): 61.87 ± 14.65%
- viability of A549 cells relative to control (A549 cells [4]; 24 h incubation, 10 µM): 87.91 ± 9.79%
- viability of A549 cells relative to control (A549 cells [4]; 24 h incubation, 25 µM): 110.30 ± 11.49%
- viability of A549 cells relative to control (A549 cells [4]; 24 h incubation, 50 µM): 91.31 ± 16.37%
- viability of A549 cells relative to control (A549 cells [4]; 24 h incubation, 100 µM): 13.33 ± 3.51%
- viability of A549 cells relative to control (A549 cells [4]; 24 h incubation, 250 µM): 1.39 ± 0.12%
- interaction with DNA (UV-Vis spectroscopic titration) [5]: does not interact in an intercalative manner with DNA
